Laboratory results reported in paper PMC7524946, “[^11C]mHED PET follows a two-tissue compartment model in mouse myocardium with norepinephrine transporter (NET)-dependent uptake, while [^18F]LMI1195 uptake is NET-independent” (EJNMMI Research, 2020).
Values joined by “and” are separate entries in the source; they are usually repeats but may differ in a detail not shown here. Equal entries are not always repeated. “Also recorded” adds a separate entry of the source. Where two headings read alike, the source gives them in different places.

Tests used:
NET [1] = conditions: cited from earlier work; for D50: rat left ventricle wall
[2] = target: T1, norepinephrine transporter (NET) (Mus musculus, UniProt O55192); test: Dose dependency of myocardial [^11C]mHED uptake by PET/CT (NET saturation); assay type: in vivo, FVB/N mice; conditions: mouse myocardium
T1 construct: from tissue; host or cells: myocardium (sympathetic nerve terminals) of living FVB/N mice, in vivo PET/CT
T1 sequence (O55192 whole entry): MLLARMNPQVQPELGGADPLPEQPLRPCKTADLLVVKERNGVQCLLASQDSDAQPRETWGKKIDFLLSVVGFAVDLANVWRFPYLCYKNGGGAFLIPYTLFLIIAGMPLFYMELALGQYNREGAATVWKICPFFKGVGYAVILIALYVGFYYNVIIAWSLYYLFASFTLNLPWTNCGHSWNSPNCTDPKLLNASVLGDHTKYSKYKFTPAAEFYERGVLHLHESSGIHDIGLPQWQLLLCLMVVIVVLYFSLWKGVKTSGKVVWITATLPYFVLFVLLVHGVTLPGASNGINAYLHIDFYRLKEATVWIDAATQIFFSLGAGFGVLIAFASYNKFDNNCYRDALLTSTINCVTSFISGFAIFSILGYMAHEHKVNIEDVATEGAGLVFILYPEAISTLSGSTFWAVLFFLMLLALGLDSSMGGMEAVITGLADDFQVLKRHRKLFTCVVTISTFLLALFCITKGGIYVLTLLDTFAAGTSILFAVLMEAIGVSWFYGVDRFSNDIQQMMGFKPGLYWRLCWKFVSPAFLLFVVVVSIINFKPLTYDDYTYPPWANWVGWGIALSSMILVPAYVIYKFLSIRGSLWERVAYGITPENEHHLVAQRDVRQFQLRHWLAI
Experimental: (§1) PET/computed tomography (CT) scans were performed with a calibrated SuperArgus PET/CT scanner (Sedecal, Madrid, Spain) with an axial field of view of 4.8 cm and a spatial resolution of 1.6–1.7 mm (full width at half maximum). Animals were under anaesthesia with ~ 2.5% isoflurane in oxygen/air (1:1) for tracer injection into the tail vein and during the scan. […] For scans without kinetic modelling, tracer was injected into mouse tail vein on scanner bed and the scan was started 1 min p.i. For kinetic modelling, [^11C]mHED was injected using the shunt system (see “Input function” section) on the scanner bed. Depth of anaesthesia was monitored by measuring the respiratory rate (SA Instruments, Inc., Stony Brook, USA). Body temperature was monitored by a rectal probe and kept at 37 °C by a heated air stream (37 °C). […] PET scans were followed by a CT for anatomical orientation.
For quantitative analyses, PET data in NIfTI file format were read with the R package oro.nifti version 0.9.1, and a cube of 36 × 30 × 30 voxels (8.7 × 7.3 × 7.3 mm^3) including the heart as judged from the PET and CT data was cropped. A liver mask was defined including all voxels with a slope ≥ − 0.012 SUV/min between 11 and 48 min p.i. (the slope limit was empirically defined by visual inspection of the results, Fig. 1). PET data corresponding to the liver mask were excluded. The myocardium mask was defined from the remaining data as the volume with highest SUV between 3 and 11 min p.i., corresponding to 0.5% of the individual body weight. Average SUV was calculated for the indicated time windows (stated as SUVstart time–end time). The SUV of the neck region was obtained from a spherical region of interest with 3 mm radius, placed over the shoulders, close to the spine.
The dose of combined administered [^11C]mHED and metaraminol (precursor for radiosynthesis) at half-maximal NET saturation in nmol/kg (D50) was calculated from the myocardial SUV1–31 min at various doses (D). […] Fit parameters were SUV1–31 min at indefinitely low dose (SUVmax), SUV1–31 min at full NET saturation, i.e. SUV1–31 min for nondisplaceable tracer (SUVmin) and D50, according to Eq. 3 which was fit to the data with the function nls of R.3 SUV1-31min=SUVmax-SUVmin×D50/D50+D+SUVmin

mouse myocardium = test: [^11C]mHED PET kinetic (compartment) modelling with arteriovenous shunt input function; assay type: in vivo, FVB/N mice; conditions: mean of 3 scans (SD)
Experimental: as §1
For kinetic modelling, an arteriovenous shunt system was applied to record the coincidences of arterial blood (Twilite, Swisstrace, Zurich, Switzerland) simultaneously with the PET data acquisition (Additional file 1). The resulting blood coincidences were transformed to Bq/ml with a calibration factor determined from simultaneous measurements of an [^11C]mHED solution in the PET scanner and the blood counter. Next, the blood Bq/ml was multiplied with fitted Eq. 2 to calculate the plasma activity concentration. Finally, the plasma Bq/ml was multiplied with fitted Eq. 1 to receive the parent tracer Bq/ml in plasma, which is the input function.
PET kinetic modelling with R was performed with a one- and three two-tissue compartment models according to Eq. 4,4 CPET=1-vb×Wmodel⊗Ca+vb×Cb where CPET is the activity concentration in the PET image, either as kBq/cm^3 or normalised as SUV, vb is the partial volume of blood in the region-of-interest (potentially including interstitial space), Wmodel is the model-dependent weighting function. Ca is the parent tracer activity concentration in the arterial plasma (input function, kBq/ml, or SUV), and Cb is the whole blood activity concentration as calculated from the blood coincidences, in kBq/cm^3 or as SUV.
WTCM1 for the one-tissue compartment model (TCM1, Fig. 2a) corresponds to K1 × exp(− k2 × t), with t as time, K1 and k2 the clearance term from plasma to tissue and rate constant back, respectively. WTCM2p and WTCM2s for the two-tissue compartment models with parallel (TCM2p, Fig. 2b) and serial (TCM2s, Fig. 2c) tissue compartments, respectively, were according to Eqs. 5–10 [16]. In the case of the TCM2p, K1, k2, K3, and k4 correspond to φ1, θ1, φ2, and θ2, respectively, of Eq. 5. WTCM2v for the two-tissue compartment model in Fig. 2d (TCM2v) was numerically solved from the differential equation system in Eqs. 11 and 12 with the R package deSolve and the ode function, with 1-s time intervals.
Besides the transfer clearance or rate constants K1, k2, k3 (or K3 for TCM2p), and k4, vb was included as a parameter to fit. Equation 3 was fit to the experimental TACs applying the optim minimization function of R.
Fits were run with multiple starts with a matrix of 101 sets of random start parameters between lower and upper limits for K1, k2, k3 (or K3), k4, and vb (Additional file 1: Table S1). The activity concentrations in the individual tissue compartments were simulated by numerically solving the respective differential equation systems for TCM2s and TCM2v and from the analytical solutions for TCM2p (the two exponential terms of Eq. 5). Calculations were performed in parallel on a 32 core workstation. Best fits were chosen based on the sum of squared residues (SSR) between predicted and experimental TACs. […] Correlations between parameters were calculated with the lm, cor, and cor.test functions of R and were considered significant at p < 0.05.

[3] = target: T1, norepinephrine transporter (NET); test: PET/CT myocardial tracer uptake with desipramine blocking (specificity for NET); assay type: in vivo, FVB/N mice; conditions: 20 mg/kg desipramine HCl i.p. 10 min before tracer i.v.
Experimental: as §1
Two [^11C]mHED scans (one baseline, one for kinetic modelling) were excluded from further analysis due to technical problems before or during the scan, respectively (not included in Table 1). […] Tissue radioactivity was either expressed as kBq/cm^3 or normalized to the injected dose per g body weight (kBq/g) and expressed as SUV, assuming a tissue density of 1 g/cm^3. […]

[4] = Experimental: For determining activity concentration ratios of plasma to whole blood in mice, 11–90 MBq [^11C]mHED were injected intravenously (i.v.) via the tail vein in awake mice. After anaesthesia, animals were euthanized at the indicated time points and blood was collected. An aliquot was centrifuged as described above to separate plasma from blood cells. Plasma and whole blood activity concentrations (Bq/ml) were determined by a gamma counter (Wizard 1480; Perkin Elmer) to calculate the plasma/whole blood activity concentration ratio (ρplasma/blood). Bi-exponential function (Eq. 2) was fit to ρplasma/blood over time using the nls function of R.2 ρplasma/blood=r1×exp-r3×t-r2×exp-r4×t+r2
In Eq. 2, r1 to r4 are the fit parameters and t is the time.

[5] = after [^11C]mHED i.v. injection
Experimental: Mice were injected awake with formulated [^11C]mHED (26–173 MBq) via the tail vein. Animals were anaesthetized with 5% isoflurane in oxygen/air (1:1) and euthanized by decapitation at the indicated time points to collect blood, urine, and heart tissue. Plasma was separated from blood by centrifugation (5000×g for 5 min at 4 °C). Plasma and urine were each mixed with equal volumes of ice-cold acetonitrile (MeCN) for protein precipitation. The dissected heart was homogenized in 2 ml PBS, and proteins were precipitated with 2 ml ice-cold MeCN. The samples were centrifuged (5000×g, 4 °C), and the supernatants were filtered and analysed by radio-UPLC (Waters Acquity UPLC HSS T3 1.8 µm) with the following separation conditions: 10 mM NH4HCO3 (solvent A), MeCN (solvent B); 0.0–1.0 min, 5–30% B; 1.0–1.7 min, 30% B; 1.7–1.8 min, 30–5% B and 1.8–3.0 min, 5% B at a flow rate of 0.5 ml/min (retention time: 1.75 min). The fraction of parent tracer radioactivity to total radioactivity in plasma (fparent) was calculated as the ratio of radioactivity in the [^11C]mHED peak and total detected radioactivity in the chromatogram.
In Eq. 1, q1 to q4 are the fit parameters (q3 was estimated and fixed) and t is the time. Equation 1 was empirically defined, taking into account the exponential functions of time under linear kinetics and a lag phase for metabolite formation.

NET [6] = system: NET; parameters: method as in PMID 20679472, PMID 9290077; conditions: mouse myocardium; cited from earlier work
myocardium = system: myocardium; parameters: method as in PMID 27230922; conditions: humans, recent PET study; cited from earlier work
NET [7] = system: NET; parameters: method as in PMID 21555377, PMID 23601914; conditions: rabbits; cited from earlier work
NET [8] = system: NET; parameters: method as in PMID 21555377, PMID 23601914; conditions: nonhuman primates; cited from earlier work
NET [9] = system: NET; parameters: method as in PMID 21555377, PMID 23601914; conditions: human subjects; cited from earlier work
NET [10] = system: NET; parameters: method as in PMID 21555377, PMID 23601914; conditions: rats; cited from earlier work
[11] = volume-of-interest 0.5% body volume

Compound: CNC(C)C(O)c1cccc(O)c1 (stereo not shown) [mHED, meta-hydroxyephedrine]
- D50 (NET [1]): 90 to 100 nmol/kg

Compound: C[C@H](N[11CH3])[C@H](O)c1cccc(O)c1 [[^11C]mHED, [^11C]meta-hydroxyephedrine]
- D50 (dose of combined [^11C]mHED and metaraminol at half-maximal NET saturation) ([2]; from SUV1–31 min, fit Eq. 3, n = 14 scans): 88.3 nmol/kg
- D50 (dose at half-maximal NET saturation) ([2]; from SUV1–61 min (complete scan duration)): 89.1 nmol/kg
- Fit SUVmax (SUV1–31 min at indefinitely low dose) [2, 11]: 4.4
- Fit SUVmin (SUV1–31 min at full NET saturation, nondisplaceable tracer) [2, 11]: 1.0
- K1 (mouse myocardium; TCM1): 0.87 ± 0.11 ml/min/cm^3 and 0.868 (0.113) ml/min/cm^3
- k2 (mouse myocardium; TCM1): 0.029 (0.01) 1/min
- K1 (mouse myocardium; TCM2p): 0.499 (0.153) ml/min/cm^3
- K3 (mouse myocardium; TCM2p): 0.448 (0.114) ml/min/cm^3
- k2 (mouse myocardium; TCM2p): 0.0125 (0.0034) 1/min
- k4 (mouse myocardium; TCM2p): 0.134 (0.040) 1/min
- K1 (mouse myocardium; TCM2s): 0.947 ± 0.146 ml/min/cm^3 and 0.947 (0.146) ml/min/cm^3
- k2 (mouse myocardium; TCM2s): 0.0672 (0.0062) 1/min
- k3 (mouse myocardium; TCM2s): 0.0541 (0.0263) 1/min
- k4 (mouse myocardium; TCM2s): 0.0254 (0.0117) 1/min
- K1 (mouse myocardium; TCM2v): 0.947 ± 0.146 ml/min/cm^3 and 0.947 (0.146) ml/min/cm^3
- k2 (mouse myocardium; TCM2v): 0.0672 (0.0062) 1/min
- k3 (mouse myocardium; TCM2v): 0.0669 (0.0344) 1/min
- k4 (mouse myocardium; TCM2v): 0.0125 (0.0034) 1/min
- Blocking of myocardial tracer uptake by desipramine [3]: significantly reduced; also recorded: blocking effect was observed
- ρplasma/blood (plasma/whole blood activity concentration ratio) ([4]; at 3 min): ~ 0.6
- ρplasma/blood (plasma/whole blood activity concentration ratio) ([4]; constant value from ~ 20 min onwards): ~ 1
- ρplasma/blood (plasma/whole blood activity concentration ratio) ([4]; time t = 0, assumed 1/(1-Hkt), hematocrit 0.458): 1.85
- Radiometabolite in plasma and urine ([5]; mouse): detected a radiometabolite in plasma and urine
- Radiometabolite in myocardium ([5]; mouse heart extract): no radiometabolite were detected
- Reported D50 (NET [1]; rat myocardium): 91 nmol/kg
- Reported D50 (NET [6]): 132 nmol/kg
- K1 of [^11C]mHED uptake (myocardium): up to 0.6 ml/min/g

Compound: C[C@H](N)[C@H](O)c1cccc(O)c1 [metaraminol]
- D50 (NET [1]): 90 to 100 nmol/kg

Compound: N=C(N)NCc1ccc(OCCC[18F])c(Br)c1 [[^18F]LMI1195, [^18F]flubrobenguane]
- Blocking of myocardial tracer uptake by desipramine [3]: not
- Desipramine sensitivity of cardiac uptake (NET [7]): desipramine-sensitive
- Desipramine sensitivity of cardiac uptake (NET [8]): desipramine-sensitive
- Desipramine sensitivity of cardiac uptake (NET [9]): desipramine-sensitive
- Desipramine sensitivity of cardiac uptake (NET [10]): not in rats
